According to patent US20250109126A1, “DIHYDRO-OXAZOL DERIVATIVE COMPOUNDS” (AC IMMUNE SA, priority 2021, published 2025):
Like-named read-outs stand apart in the source and are kept apart here.

Test system: NLRP3 inflammasome pathway
Test: NLRP3 inflammasome pathway activation assay, IL-1β release (HTRF) in human monocyte-like cells stimulated with MSU or Nigericin
Assay type: cell-based
Procedure: The following assays were used to determine the inhibitory activity of test compounds on the NLRP3 inflammasome pathway using common stimuli Nigericin (Invivogen) or monosodium urate crystals (MSU) (Invivogen).
Human monocyte-like cells were cultured in RPMI-1640 Glutamax medium supplemented with 10% heat inactivated FCS and 50 U/ml penicillin-streptomycin (Life Technologies).
Human monocyte-like cells were seeded at 75000 per well in a 96-well plate and were differentiated overnight into macrophages with 10 ng/ml PMA (Phorbol Myristate Acetate). The following day, medium containing 10 ng/ml LPS (Lipopolysaccharide) were added. After 3 hours of LPS priming, concentrations of test compound in the range from 100 μM to 6 nM were added 30 min prior to NLRP3 inflammasome pathway stimulation with Nigericin 3.75 μM or MSU 200 μg/ml for 3 h.
For IL-1β quantification, supernatants were analyzed using HTRF kit according to the manufacturer's instructions (Cisbio 62HIL1BPEH). Briefly, in a 384-well ProxiPlate™ microplate, 8 μl of sample was mixed, with 4 μl of Anti-IL1β Cryptate antibody (40×) and Anti-IL1β XL antibody (40×). Then, incubated overnight at RT. Reading was done using an EnVision Reader (PerkinElmer).
IC50 (concentration corresponding to 50% inhibition) were determined using GraphPad Prism 8.

[1] = Homo sapiens, 3 h, IL-1β release, PMA-differentiated, LPS-primed cells, MSU 200 μg/ml for 3 h, read-out: IC50 Human monocyte-like cells MSU
[2] = Homo sapiens, 3 h, read-out: IC50 Human monocyte-like cells Nigericin (μM)
[3] = IL-1β release, PMA-differentiated, LPS-primed cells, MSU 200 μg/ml for 3 h, read-out: IC50 Human monocyte-like cells MSU

| SMILES | IC50 [1] | also measured |
| --- | --- | --- |
| CCOC(=O)C1(c2ccon2)CN=C(Nc2c3c(c(C(F)(F)F)c4c2CCC4)CCC3)O1 (racemic) [Example 21, ethyl 5-(isoxazol-3-yl)-2-((8-(trifluoromethyl)-1,2,3,5,6,7-hexahydro-s-indacen-4-yl)amino)-4,5-dihydrooxazole-5-carboxylate] | 1 to 10 µM | IC50 [2]: < 1 µM |
| Cc1c2c(c(NC3=NCC(C(=O)O)(c4ccon4)O3)c3c1CCC3)CCC2 (stereo not shown) [Example 14, 2-[(8-methyl-1,2,3,5,6,7-hexahydro-s-indacen-4-yl)amino]-5-(1,2-oxazol-3-yl)-4,5-dihydro-1,3-oxazole-5-carboxylic acid] | 1 to 10 µM | – |
| Cc1c2c(c(NC3=NCC(C(=O)O)(c4ccon4)O3)c3c1CCC3)CCC2 (single isomer, unassigned) [Example 15, 2-[(8-methyl-1,2,3,5,6,7-hexahydro-s-indacen-4-yl)amino]-5-(1,2-oxazol-3-yl)-4,5-dihydro-1,3-oxazole-5-carboxylic acid] | 1 to 10 µM | – |
| CCOC(=O)C1(c2ccon2)CN=C(Nc2c(-c3ccnc(OC)c3)cc(F)cc2C(C)C)O1 (racemic) [Example 1, ethyl 2-{[4-fluoro-2-(2-methoxypyridin-4-yl)-6-(propan-2-yl)phenyl]amino}-5-(1,2-oxazol-3-yl)-4,5-dihydro-1,3-oxazole-5-carboxylate] | < 1 µM | – |
| COc1cc(-c2cc(F)cc(C(C)C)c2NC2=NCC(C(=O)O)(c3ccon3)O2)ccn1 (single isomer, unassigned) [Example 11, 2-{[4-fluoro-2-(2-methoxypyridin-4-yl)-6-(propan-2-yl)phenyl]amino}-5-(1,2-oxazol-3-yl)-4,5-dihydro-1,3-oxazole-5-carboxylic acid] | < 1 µM | IC50 [2]: 1 to 10 µM |
| CCOC(=O)C1(c2ccon2)CN=C(Nc2c3c(c(-c4ccccc4)c4c2CCC4)CCC3)O1 (single isomer, unassigned) [Example 9, ethyl 5-(isoxazol-3-yl)-2-((8-phenyl-1,2,3,5,6,7-hexahydro-s-indacen-4-yl)amino)-4,5-dihydrooxazole-5-carboxylate] | – | IC50 [2]: 1 to 10 µM; IC50 [3]: < 1 µM |
| CCOC(=O)C1(c2ccon2)CN=C(Nc2c(-c3ccnc(OC)c3)ccc3c2CCC3)O1 (racemic) [Example 4, ethyl 2-{[5-(2-methoxypyridin-4-yl)-2,3-dihydro-1H-inden-4-yl]amino}-5-(1,2-oxazol-3-yl)-4,5-dihydro-1,3-oxazole-5-carboxylate] | < 1 µM | – |
| COc1cc(-c2cc(F)cc(C(C)C)c2NC2=NCC(C(=O)O)(c3ccon3)O2)ccn1 (stereo not shown) [Example 10, 2-{[4-fluoro-2-(2-methoxypyridin-4-yl)-6-(propan-2-yl)phenyl]amino}-5-(1,2-oxazol-3-yl)-4,5-dihydro-1,3-oxazole-5-carboxylic acid] | < 1 µM | – |
| COc1cc(-c2ccc3c(c2NC2=NCC(C(=O)O)(c4ccon4)O2)CCC3)ccn1 (stereo not shown) [Example 13, 2-{[5-(2-methoxypyridin-4-yl)-2,3-dihydro-1H-inden-4-yl]amino}-5-(1,2-oxazol-3-yl)-4,5-dihydro-1,3-oxazole-5-carboxylic acid] | < 1 µM | IC50 [2]: 10 to 30 µM |
| COc1cc(-c2cc(F)c3c(c2NC2=NCC(C(=O)O)(c4ccon4)O2)CCC3)ccn1 (stereo not shown) [Example 26, 2-((7-fluoro-5-(2-methoxypyridin-4-yl)-2,3-dihydro-1H-inden-4-yl)amino)-5-(isoxazol-3-yl)-4,5-dihydrooxazole-5-carboxylic acid] | 1 to 10 µM | – |
| O=C(O)C1(c2cnoc2)CN=C(Nc2c3c(c(-c4ccccc4)c4c2CCC4)CCC3)O1 (stereo not shown) [Example 28, lithium 5-(isoxazol-4-yl)-2-((8-phenyl-1,2,3,5,6,7-hexahydro-s-indacen-4-yl)amino)-4,5-dihydrooxazole-5-carboxylate] | – | IC50 (Homo sapiens, 3 h, read-out: IC50 Human monocyte-like cells MSU (μM)): 10 to 30 µM; IC50 [2]: 10 to 30 µM |
| COc1cc(-c2c(C)cc3c(c2NC2=NCC(C(=O)O)(c4ccon4)O2)CCC3)ccn1 (stereo not shown) [Example 27, 5-(isoxazol-3-yl)-2-((5-(2-methoxypyridin-4-yl)-6-methyl-2,3-dihydro-1H-inden-4-yl)amino)-4,5-dihydrooxazole-5-carboxylic acid] | < 1 µM | IC50 [2]: 1 to 10 µM |
| CCOC(=O)C1(c2ccon2)CN=C(Nc2c(-c3ccncc3)cc(F)cc2C(C)C)O1 (racemic) [Example 18, ethyl 2-((4-fluoro-2-isopropyl-6-(pyridin-4-yl)phenyl)amino)-5-(isoxazol-3-yl)-4,5-dihydrooxazole-5-carboxylate] | < 1 µM | – |
| CCOC(=O)C1(c2ccon2)CN=C(Nc2c(C(C)C)cc(F)cc2C(C)C)O1 (racemic) [Example 23, ethyl 2-((4-fluoro-2,6-diisopropylphenyl)amino)-5-(isoxazol-3-yl)-4,5-dihydrooxazole-5-carboxylate] | 1 to 10 µM | – |
| COc1cc(-c2ccc3c(c2NC2=NCC(C(=O)O)(c4ccon4)O2)CCO3)ccn1 (stereo not shown) [Example 24, 5-(isoxazol-3-yl)-2-((5-(2-methoxypyridin-4-yl)-2,3-dihydrobenzofuran-4-yl)amino)-4,5-dihydrooxazole-5-carboxylic acid] | 1 to 10 µM | – |
| CC(C)c1cc(F)cc(-c2ccncc2)c1NC1=NCC(C(=O)O)(c2ccon2)O1 (stereo not shown) [Example 25, 2-((4-fluoro-2-isopropyl-6-(pyridin-4-yl)phenyl)amino)-5-(isoxazol-3-yl)-4,5-dihydrooxazole-5-carboxylic acid] | 1 to 10 µM | – |
| CCOC(=O)C1(c2ccon2)CN=C(Nc2c(-c3ccnc(OC)c3)cc(F)cc2C(C)C)O1 (single isomer, unassigned) [Example 2, ethyl 2-{[4-fluoro-2-(2-methoxypyridin-4-yl)-6-(propan-2-yl)phenyl]amino}-5-(1,2-oxazol-3-yl)-4,5-dihydro-1,3-oxazole-5-carboxylate] | < 1 µM | – |
| CCOC(=O)C1(c2ccon2)CN=C(Nc2c3c(c(C)c4c2CCC4)CCC3)O1 (racemic) [Example 7, ethyl 5-(isoxazol-3-yl)-2-((8-methyl-1,2,3,5,6,7-hexahydro-s-indacen-4-yl)amino)-4,5-dihydrooxazole-5-carboxylate] | < 1 µM | – |
| CCOC(=O)C1(c2ccon2)CN=C(Nc2c(-c3ccnc(OC)c3)cc(F)cc2C(C)C)O1 (single isomer, unassigned) [Example 3, ethyl 2-{[4-fluoro-2-(2-methoxypyridin-4-yl)-6-(propan-2-yl)phenyl]amino}-5-(1,2-oxazol-3-yl)-4,5-dihydro-1,3-oxazole-5-carboxylate] | – | IC50 [3]: 1 to 10 µM |
| COc1cc(-c2ccc3c(c2NC2=NCC(C(=O)O)(c4ccon4)O2)CCC3)ccn1 (racemic) [Example 12, 2-{[5-(2-methoxypyridin-4-yl)-2,3-dihydro-1H-inden-4-yl]amino}-5-(1,2-oxazol-3-yl)-4,5-dihydro-1,3-oxazole-5-carboxylic acid] | 1 to 10 µM | – |
| CCOC(=O)C1(c2ccon2)CN=C(Nc2c3c(cc(C)c2-c2ccnc(OC)c2)CCC3)O1 (racemic) [Example 20, ethyl 5-(isoxazol-3-yl)-2-((5-(2-methoxypyridin-4-yl)-6-methyl-2,3-dihydro-1H-inden-4-yl)amino)-4,5-dihydrooxazole-5-carboxylate] | < 1 µM | – |
| CCOC(=O)C1(c2ccon2)CN=C(Nc2c(-c3ccnc(OC)c3)ccc3c2CCO3)O1 (racemic) [Example 17, ethyl 5-(isoxazol-3-yl)-2-((5-(2-methoxypyridin-4-yl)-2,3-dihydrobenzofuran-4-yl)amino)-4,5-dihydrooxazole-5-carboxylate] | < 1 µM | – |
| CCOC(=O)C1(c2ccon2)CN=C(Nc2c3c(c(-c4ccccc4)c4c2CCC4)CCC3)O1 (single isomer, unassigned) [Example 16, ethyl 5-(isoxazol-3-yl)-2-((8-phenyl-1,2,3,5,6,7-hexahydro-s-indacen-4-yl)amino)-4,5-dihydrooxazole-5-carboxylate] | – | IC50 [3]: 10 to 30 µM; IC50 (read-out: IC50 Human monocyte-like cells Nigericin, IL-1β release, PMA-differentiated, LPS-primed cells, Nigericin 3.75 μM for 3 h): 1 to 10 µM |
| CCOC(=O)C1(c2ccon2)CN=C(Nc2c(-c3ccnc(OC)c3)cc(F)c3c2CCC3)O1 (racemic) [Example 19, ethyl 2-((7-fluoro-5-(2-methoxypyridin-4-yl)-2,3-dihydro-1H-inden-4-yl)amino)-5-(isoxazol-3-yl)-4,5-dihydrooxazole-5-carboxylate] | < 1 µM | – |
